Measurements: US6858638B2, “Substituted indazoles, compositions containing them, method of production and use” (Aventis Pharma S.A., priority 2002, dated 2005)

Tests used:
Type in all cases: biochemical
[1] = target: T1, human FAK (Homo sapiens, UniProt Q05397); assay: FAK autophosphorylation inhibition, time resolved fluorescence (HTRF) assay; conditions: 10 μM (values without asterisk); read-out: FAK % inhib at 10 μM
T1 construct: The complete cDNA of human FAK; made in house; host or cells: baculovirus expression system (vector pFastBac HTc)
T1 sequence (Q05397 whole entry): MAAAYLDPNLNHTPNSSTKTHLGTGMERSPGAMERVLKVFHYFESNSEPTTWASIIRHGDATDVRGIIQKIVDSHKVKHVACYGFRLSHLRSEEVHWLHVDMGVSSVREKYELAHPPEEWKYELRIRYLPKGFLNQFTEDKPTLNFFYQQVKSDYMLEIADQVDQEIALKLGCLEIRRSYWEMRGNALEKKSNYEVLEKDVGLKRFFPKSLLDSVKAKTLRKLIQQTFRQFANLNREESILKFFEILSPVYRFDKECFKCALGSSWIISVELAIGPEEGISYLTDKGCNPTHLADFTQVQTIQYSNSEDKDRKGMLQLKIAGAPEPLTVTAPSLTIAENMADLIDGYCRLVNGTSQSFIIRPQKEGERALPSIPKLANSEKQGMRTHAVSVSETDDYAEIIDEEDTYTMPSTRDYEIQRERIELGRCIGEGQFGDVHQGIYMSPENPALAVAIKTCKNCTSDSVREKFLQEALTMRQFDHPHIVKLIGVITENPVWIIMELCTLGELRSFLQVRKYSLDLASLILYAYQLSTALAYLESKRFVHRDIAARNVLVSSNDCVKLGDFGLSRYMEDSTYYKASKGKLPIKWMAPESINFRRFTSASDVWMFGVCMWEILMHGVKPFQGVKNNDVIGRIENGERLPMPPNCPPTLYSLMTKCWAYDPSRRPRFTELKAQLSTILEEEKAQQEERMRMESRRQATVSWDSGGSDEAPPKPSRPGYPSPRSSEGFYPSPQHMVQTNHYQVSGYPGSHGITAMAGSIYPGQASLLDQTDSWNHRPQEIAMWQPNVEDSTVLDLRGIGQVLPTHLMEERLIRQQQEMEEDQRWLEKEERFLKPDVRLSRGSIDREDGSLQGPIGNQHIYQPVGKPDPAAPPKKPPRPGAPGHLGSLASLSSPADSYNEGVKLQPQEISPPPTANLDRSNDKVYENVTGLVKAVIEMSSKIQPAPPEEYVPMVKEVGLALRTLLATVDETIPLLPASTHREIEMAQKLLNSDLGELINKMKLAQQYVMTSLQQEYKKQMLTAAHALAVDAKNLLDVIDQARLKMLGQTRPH
Description: The inhibitory activity of the compounds on FAK is determined by measuring the inhibition of the autophosphorylation of the enzyme using a time resolved fluorescence (HTRF) assay.
The complete cDNA of human FAK, the N-terminal end of which was labeled with histidine, was cloned into a baculovirus expression vector pFastBac HTc. The protein was expressed and purified to approximately 70% homogeneity.
The kinase activity is determined by incubating the enzyme (6.6 μg/ml) with various concentrations of test compound in a 50 mM Hepes buffer, pH=7.2, containing 10 mM MgCl2, 100 μM Na3VO4 and 15 μM d'ATP for 1 hour at 37° C. The enzyme reaction is stopped by adding Hepes buffer, pH=7.0, containing […], 133 mM EDTA and 0.1% BSA, and the labeling is carried out, over 1 to 2 hours at ambient temperature, by adding to this buffer an anti-Histidine antibody labeled with XL665 and a monoclonal antibody phosphospecific for tyrosine, conjugated to europium cryptate (Eu-K). The characteristics of the two fluorophores are available in G. Mathis et al., Anticancer Research, 1997, 17, pages 3011-3014. The transfer of energy from the excited europium cryptate to the XL665 acceptor is proportional to the degree of autophosphorylation of FAK. The long-lived signal specific for XL-665 is measured in a Packard Discovery plate counter. All the assays are carried out in duplicate and the mean of the two assays is calculated. The inhibition of the FAK autophosphorylation activity with compounds of the invention is expressed as percentage inhibition compared to a control whose activity is measured in the absence of test compound. The [signal at 665 nm/signal at 620 nm] ratio is used for the calculation of the % inhibition.

[2] = target: T2, Aurora2 kinase (Homo sapiens, UniProt O14965); assay: Aurora2 kinase radioactivity scintillation assay using nickel chelate (NuMA substrate); conditions: 10 μM; read-out: Aurora2 % inhib at 10 μM
T2 construct: A complete recombinant Aurora2 enzyme; His tag (N); made in house; host or cells: E. coli
T2 sequence (O14965 1-403): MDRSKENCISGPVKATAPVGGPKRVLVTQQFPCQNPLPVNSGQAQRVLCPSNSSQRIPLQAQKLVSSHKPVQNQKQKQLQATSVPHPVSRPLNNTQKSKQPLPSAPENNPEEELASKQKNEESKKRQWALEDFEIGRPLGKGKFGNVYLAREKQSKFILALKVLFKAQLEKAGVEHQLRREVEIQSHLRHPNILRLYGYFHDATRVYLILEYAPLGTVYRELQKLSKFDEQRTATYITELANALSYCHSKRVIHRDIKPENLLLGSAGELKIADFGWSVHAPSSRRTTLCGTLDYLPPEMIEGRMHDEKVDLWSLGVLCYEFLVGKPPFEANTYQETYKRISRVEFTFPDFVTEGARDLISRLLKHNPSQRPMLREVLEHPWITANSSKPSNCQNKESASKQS
Description: The inhibitory effect of compounds with respect to the Aurora2 kinase is determined with a radioactivity scintillation assay using nickel chelate.
A complete recombinant Aurora2 enzyme, the N-terminal end of which was labeled with histidine, was expressed in E. coli and purified to a quality close to homogeneity.
The C-terminal fragment (Q1687-H2101) of a NuMA (Nuclear protein that associates with the Mitotic Apparatus) expressed in E. coli, and the N-terminal end of which was labeled with histidine, was purified by nickel chelate chromatography and used as substrate in the Aurora2 kinase assay. In order to determine the kinase activity, the NuMA substrate is equilibrated by chromatography on a Pharmacia PD10 column, in a buffer (50 mM Tris HCl, pH7.5, 50 mM NaCl, 10 mM MgCl2) to which 10% (v/v) of glycerol and 0.05% (w/v) of NP40 have been added.
The kinase acivitity of Aurora2 is measured by scintillation with nickel chelate (New England Nuclear, model SMP107). Each well contains 100 μl of the following solution: 0.02 μM of Aurora2; 0.5 μM of NuMA substrate; 1 μM of ATP to which 0.5 μCi of ATP-[^33P] has been added. The solutions are incubated for 30 minutes at 37° C. The assay buffer is then removed and the wells are rinsed twice with 300 μl of kinase buffer. The radioactivity is measured in each well using a Packard Model Top Count NXT device.
The background noise is deduced from the measurement of radioactivity by measuring, in duplicate, in wells containing the radioactive ATP alone containing buffered kinase treated in the same way as the other samples.
The activity of the control is determined by measuring, in duplicate, the radioactivity in the complete assay mixture (ATP, Aurora2 and the NuMA substrate) in the absence of test compound.
The inhibition of the Aurora2 with a compound of the invention is expressed as percentage inhibition of the control activity in the absence of test compound. Staurosporine is added to each plate as an inhibition control.

[3] = target: T3, human KDR enzyme (Homo sapiens, UniProt P35968); assay: KDR substrate (PLCγ) phosphorylation, scintillation assay; conditions: 10 μM; read-out: KDR % inhib at 10 μM
T3 construct: The cytoplasmic domain of the human KDR enzyme; GST; made in house; host or cells: SF21 insect cells (baculovirus)
T3 sequence (P35968 786-1356 limits assumed): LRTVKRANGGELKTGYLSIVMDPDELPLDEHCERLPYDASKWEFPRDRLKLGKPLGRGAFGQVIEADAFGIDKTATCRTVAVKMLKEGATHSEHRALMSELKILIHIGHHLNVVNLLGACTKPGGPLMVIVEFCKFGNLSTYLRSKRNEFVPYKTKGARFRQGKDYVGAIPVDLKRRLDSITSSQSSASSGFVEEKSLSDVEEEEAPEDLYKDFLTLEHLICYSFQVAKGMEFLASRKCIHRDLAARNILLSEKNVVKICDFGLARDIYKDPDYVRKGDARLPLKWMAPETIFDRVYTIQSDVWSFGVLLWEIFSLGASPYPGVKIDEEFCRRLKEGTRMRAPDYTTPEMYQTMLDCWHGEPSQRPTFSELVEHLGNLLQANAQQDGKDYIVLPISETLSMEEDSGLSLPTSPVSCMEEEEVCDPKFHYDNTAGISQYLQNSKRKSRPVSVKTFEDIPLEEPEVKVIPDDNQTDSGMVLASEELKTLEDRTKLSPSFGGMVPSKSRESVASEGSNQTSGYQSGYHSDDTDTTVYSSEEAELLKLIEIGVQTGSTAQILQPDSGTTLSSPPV
Description: The inhibitory effect of the compounds is determined in an assay of substrate phosphorylation by the KDR enzyme in vitro using a scintillation technique (96-well plate, NEN).
The cytoplasmic domain of the human KDR enzyme was cloned in the form of a GST fusion into the baculovirus expression vector pFastBac. The protein was expressed in SF21 cells and purified to approximately 60% homogeneity.
The KDR kinase activity is measured in 20 mM MOPS, 10 mM MgCl2, 10 mM MnCl2, 1 mM DTT, 2.5 mM EGTA, 10 mM β-glycerophosphate, pH=7.2, in the presence of 10 mM MgCl2, 100 μM Na3VO4, 1 mM NaF. 10 μl of the compound are added to 70 μl of kinase buffer containing 100 ng of KDR enzyme at 4° C. The reaction is triggered by adding 20 μl of solution containing 2 μg of substrate (SH2-SH3 fragment of PLCγ expressed in the form of a GST fusion protein), 2 μCi γ^33P[ATP] and 2 μM cold ATP. After incubation for 1 hour at 37° C., the reaction is stopped by adding 1 volume (100 μl) of 200 mM EDTA. The incubation buffer is removed and the wells are washed three times with 300 μl of PBS. The radioactivity is measured in each well using Top Count NXT radioactivity counter (Packard).
The background noise is determined by measuring the radioactivity in four different wells containing the radioactive ATP and the substrate alone.
A control for total activity is measured in four different wells containing all the reagents (γ^33P-[ATP], KDR and PLCγ substrate) but in the absence of compound.
The inhibition of the KDR activity with the compound of the invention is expressed as percentage inhibition of the control activity determined in the absence of compound.
The compound SU5614 (Calbiochem) (1 μM) is included in each plate as an inhibition control.

| SMILES | inhibition at 10 µM [1] [%] | inhibition at 10 µM [2] [%] | inhibition at 10 µM [3] [%] |
| --- | --- | --- | --- |
| CCCCOc1ccc(S(=O)(=O)Nc2ccc3[nH]nc(-c4ccccc4)c3c2)cc1 [Example 145, 4-Butoxy-N-(3-phenyl-1H-indazol-5-yl)-benzenesulfonamide] | 0 | 26 | 14 |
| Cc1ccc(S(=O)(=O)Nc2ccc3[nH]nc(-c4ccccc4)c3c2)cc1 [Example 122, 4-Methyl-N-(3-phenyl-1H-indazol-5-yl)-benzenesulfonamide] | 23 | 65 | 72 |
| CC(=O)Nc1n[nH]c2ccc(NS(=O)(=O)c3cccc(F)c3)cc12 [Example 28, N-[5-(3-Fluorobenzenesulfonylamino)-1H-indazol-3-yl)acetamide] | 84 | 92 | 24 |
| O=S(=O)(Nc1ccc2[nH]nc(-c3ccccc3)c2c1)c1ccc(Br)cc1 [Example 116, 4-Bromo-N-(3-phenyl-1H-indazol-5-yl)-benzenesulfonamide] | 20 | 69 | 81 |
| O=S(=O)(Nc1ccc2[nH]nc(-c3cc4ccccc4[nH]3)c2c1)c1cccs1 [Example 87, {N-[3-(1H-indol-2-yl)-1H-indazol-5-yl]}thiophene-2-sulfonamide] | 91 | 100 | 100 |
| O=S(=O)(Cc1ccccc1)Nc1ccc2[nH]nc(-c3ccccc3)c2c1 [Example 125, 1-Phenyl-N-(3-phenyl-1H-indazol-5-yl)-methanesulfonamide] | 17 | 65 | 56 |
| O=C(Nc1ccccc1)c1n[nH]c2ccc(NS(=O)(=O)c3cccc(F)c3)cc12 [Example 22, N-Phenyl-5-(3-fluorobenzenesulfonylamino)-1H-indazole-3-carboxamide] | 89 | 84 | 18 |
| CC(C)S(=O)(=O)Nc1ccc2[nH]nc(-c3ccccc3)c2c1 [Example 123, 1-Methyl-N-(3-phenyl-1H-indazol-5-yl)ethanesulfonamide] | 30 | 82 | 62 |
| CS(=O)(=O)Nc1n[nH]c2ccc(NS(=O)(=O)c3cccc(F)c3)cc12 [Example 27, 3-Fluoro-N-(3-methylsulfonylamino-1H-indazol-5-yl)benzenesulfonamide] | 6 | 76 | 13 |
| CS(=O)(=O)c1ccccc1S(=O)(=O)Nc1ccc2[nH]nc(-c3cccc(C(=O)O)c3)c2c1 [Example 56, 3-[5-(2-Methylsulfonylbenzenesulfonamino)-1H-indazol-3-yl]benzoic acid] | 81 | 87 | 82 |
| CS(=O)(=O)c1ccccc1S(=O)(=O)Nc1ccc2[nH]nc(-c3cccc4cccnc34)c2c1 [Example 67, 2-Methylsulfonyl-N-(3-quinolin-8-yl-1H-indazol-5-yl)benzenesulfonamide] | 79 | 90 | 28 |

Now from value to compound:

| inhibition at 10 µM [1] [%] | inhibition at 10 µM [2] [%] | inhibition at 10 µM [3] [%] | SMILES |
| --- | --- | --- | --- |
| 97 | 86 | 39 | COc1ccc(Cl)cc1-c1n[nH]c2ccc(NS(=O)(=O)c3ccccc3S(C)(=O)=O)cc12 [Example 215, N-[3-(5-Chloro-2-methoxy-phenyl)-1H-indazol-5-yl]-2-methanesulfonyl-benzenesulfonamide] |
| 7 | 50 | 58 | O=S(=O)(/C=C/c1ccccc1)Nc1ccc2[nH]nc(-c3ccccc3)c2c1 [Example 126, (E)-2-Phenyl-N-(3-phenyl-1H-indazol-5-yl)-ethylenesulfonamide] |
| 0 | 38 | 63 | O=S(=O)(Nc1ccc2[nH]nc(-c3ccccc3)c2c1)c1cccc(-c2ccccc2)c1 [Example 157, N-(3-Phenyl-1H-indazol-5-yl)-biphenyl-3-sulfonamide] |
| 3 | 82 | 75 | O=S(=O)(Nc1ccc2[nH]nc(-c3ccccc3)c2c1)c1ccc(-c2ccon2)s1 [Example 150, N-(3-Phenyl-1H-indazol-5-yl)-(5-isoxazol-3-ylthiophene)-2-sulfonamide] |
| 0 | 25 | 24 | Cc1c(S(=O)(=O)Nc2ccc3[nH]nc(-c4ccccc4)c3c2)sc2ccc(Cl)cc12 [Example 153, N-(3-Phenyl-1H-indazol-5-yl)-(5-chloro-3-methyl-benzo[b]thiophene)-2-sulfonamide] |
| 14 | 57 | 47 | CC(=O)Nc1ccc(S(=O)(=O)Nc2ccc3[nH]nc(-c4ccccc4)c3c2)cc1Cl [Example 146, N-[2-Chloro-4-(3-phenyl-1H-indazol-5-ylsulfamoyl)phenyl]-acetamide] |
